In patent US20100216802A1, “PTERIDINE DERIVATIVES AS POLO-LIKE KINASE INHIBITORS USEFUL IN THE TREATMENT OF CANCER” (CHROMA THERAPEUTICS LTD., priority 2006, published 2010):
Read-outs that look alike come from different tables or passages of the source.

Assays:
HCT 116 cell line = assay: Cell inhibition assay method A (WST-1, 120 hrs); assay type: cell-based; conditions: Homo sapiens, HCT-116, method A, read-out: Inhibitor Activity vs HCT 116 cell line (method A)
Description: (§1) Cell inhibition assays were carried out using either method A or method B
Cells were seeded in 96W tissue culture plates (1 well=30 mm^2) at a density of […] per well in 50 μL of the appropriate culture medium (see below). 24 hrs later […] of the compound prepared in the same medium was added as 4 fold dilutions to give final concentrations in the range 0.15 nM-2500 nM (n=6 for each concentration). The plates were then incubated at 37° C., 5% CO2 for 120 hrs. Cell proliferation was assessed using WST-1 (a metabolic indicator dye, Roche Cat no. 1 644 807) according to the manufacturers instructions. The results were calculated as percentage of vehicle response and IC50 values represent the concentration of compound that inhibited the vehicle response by 50%.
HCT-116 culture medium —Dulbeccos MEM (Sigma D6546) plus 10% heat inactivated fetal calf serum (Hyclone SH30071 Thermo Fischer Scientific) containing 2 mM Glutamine (Sigma cat no G-7513) and 50 U/ml Penicillin and Streptomycin Sulphate (Sigma Cat no P-0781).

PLK1 = target: T1, PLK1 (Homo sapiens, UniProt P53350); assay: PLK1 enzyme assay (Z'-LYTE, Invitrogen); assay type: biochemical
T1 construct: purchased Invitrogen (Paisley, UK)
T1 sequence (P53350 whole entry): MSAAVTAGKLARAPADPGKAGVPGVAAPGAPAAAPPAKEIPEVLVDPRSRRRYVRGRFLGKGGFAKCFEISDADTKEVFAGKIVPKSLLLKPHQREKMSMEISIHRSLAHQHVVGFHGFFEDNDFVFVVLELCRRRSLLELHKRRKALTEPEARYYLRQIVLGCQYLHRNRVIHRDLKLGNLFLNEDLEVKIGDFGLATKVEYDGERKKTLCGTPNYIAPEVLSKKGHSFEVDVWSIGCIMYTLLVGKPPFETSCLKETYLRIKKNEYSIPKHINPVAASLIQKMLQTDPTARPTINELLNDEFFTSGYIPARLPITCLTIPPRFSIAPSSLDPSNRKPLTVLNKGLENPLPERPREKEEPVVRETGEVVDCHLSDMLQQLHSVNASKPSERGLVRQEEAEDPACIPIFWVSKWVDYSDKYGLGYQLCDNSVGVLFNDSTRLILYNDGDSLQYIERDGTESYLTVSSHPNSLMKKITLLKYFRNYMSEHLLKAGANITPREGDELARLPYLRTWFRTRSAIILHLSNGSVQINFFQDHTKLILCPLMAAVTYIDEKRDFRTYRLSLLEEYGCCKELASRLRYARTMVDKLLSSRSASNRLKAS
Description: The ability of compounds to inhibit PLK-1 kinase activity was measured in an assay performed by Invitrogen (Paisley, UK). The Z′-LYTE™ biochemical assay employs a fluorescence-based, coupled-enzyme format and is based on the differential sensitivity of phosphorylated and non-phosphorylated peptides to proteolytic cleavage. The peptide substrate is labelled with two fluorophores—one at each end—that make up a FRET pair. In the primary reaction, the kinase transfers the gamma-phosphate of ATP to a single serine or threonine residue in a synthetic FRET-peptide. In the secondary reaction, a site-specific protease recognizes and cleaves non-phosphorylated FRET-peptides. Phosphorylation of FRET-peptides suppresses cleavage by the Development Reagent. Cleavage disrupts FRET between the donor (i.e., coumarin) and acceptor (i.e., fluorescein) fluorophores on the FRET-peptide, whereas uncleaved, phosphorylated FRET-peptides maintain FRET. A […] method, which calculates the ratio (the Emission Ratio) of donor emission to acceptor emission after excitation of the donor fluorophore at 400 nm, is used to quantitate reaction progress.
The assay is performed at an ATP concentration at, or close to, the Km. After the 60 minute Kinase Reaction incubation at RT, 5 μL of a 1:8 dilution of Development Reagent is added. The assay plate is incubated for a further 60 minutes at RT and read on a fluorescence plate reader.
Duplicate data points are generated from a ⅓ log dilution series of a stock solution of test compound in DMSO. Nine dilutions steps are made from a top concentration of 10 μM, and a ‘no compound’ blank is included. Data is collected and analysed using XLfit software from IDBS.

U937 cell = assay: Cell inhibition assay method B (tritiated thymidine incorporation, 72 hrs); assay type: cell-based; conditions: Homo sapiens, U-937, read-out: Inhibition of U937 cell proliferation (IC50, nM) (method B)
Description: as §1
The plates were then incubated at 37° C., 5% CO2 for 72 hrs.
A tritiated thymidine incorporation assay was used as a measure of cell proliferation. In short, cells were incubated with 0.4 μCi/well for 4 hrs before harvesting onto filtermats. These were dried, meltilex scintillation sheets melted on, then sealed in bags and ^3H emission counted on a Trilux microbeta counter.

[1] = ATP at or close to Km, read-out: Inhibitor Activity vs PLK1

| SMILES | IC50 (HCT 116 cell line) | IC50 (PLK1; [1]) | IC50 (PLK1; ester (for Compound 1: the compound itself, one cell spans ester/acid), read-out: Inhibition of PLK (IC50, nM) ester) | IC50 (U937 cell) |
| --- | --- | --- | --- | --- |
| CC[C@@H]1C(=O)N(C)c2cnc(Nc3ccc(C(=O)NC4CCN(CC[C@H](N)C(=O)OC(C)(C)C)CC4)cc3C)nc2N1C1CCCC1 [Example 26, t-Butyl (2S)-2-amino-4-{4-[(4-{[(7R)-8-cyclopentyl-7-ethyl-5-methyl-6-oxo-5,6,7,8-tetra hydropteridin-2-yl]amino}-3-methylbenzoyl)amino]piperidin-1-yl}butanoate] | < 100 nM | < 100 nM |  |  |
| CC[C@@H]1C(=O)N(C)c2cnc(Nc3ccc(C(=O)NC4CCN(CC[C@H](N)C(=O)OC5CCCC5)CC4)cc3OC)nc2N1C1CCCC1 [Example 22, Cyclopentyl (2S)-2-amino-4-{4-[(4-{[(7R)-8-cyclopentyl-7-ethyl-5-methyl-6-oxo-5,6,7,8-tetrahydropteridin-2-yl]amino}-3-methoxybenzoyl)amino]piperidin-1-yl}butanoate] | < 100 nM | < 100 nM | 6 nM | 0.09 nM |
| CC[C@@H]1C(=O)N(C)c2cnc(Nc3ccc(C(=O)NCCN4CCNC(C(=O)OC(C)(C)C)C4)cc3OC)nc2N1C1CCCC1 (stereo partly drawn) [Example 15, tert-butyl 4-{2-[(4-{[(7R)-8-cyclopentyl-7-ethyl-5-methyl-6-oxo-5,6,7,8-tetrahydropteridin-2-yl]amino}-3-methoxybenzoyl)amino]ethyl}piperazine-2-carboxylate] | < 100 nM | < 100 nM |  |  |
| CC[C@@H]1C(=O)N(C)c2cnc(Nc3ccc(C(=O)NC4CCN(CC[C@H](N)C(=O)OC5CCCC5)CC4)cc3C)nc2N1C1CCCC1 [Example 28, Cyclopentyl (2S)-2-amino-4-(4-[(4-{[(7R)-8-cyclopentyl-7-ethyl-5-methyl-6-oxo-5,6,7,8-tetra hydropteridin-2-yl]amino}-3-methylbenzoyl)amino]piperidin-1-yl}butanoate] | < 100 nM | < 100 nM |  |  |
| CC[C@@H]1C(=O)N(C)c2cnc(Nc3ccc(C(=O)NCCN4CCNC(C(=O)OC5CCCC5)C4)cc3OC)nc2N1C1CCCC1 (stereo partly drawn) [Example 14, Cyclopentyl 4-{2-[(4-{[(7R)-8-cyclopentyl-7-ethyl-5-methyl-6-oxo-5,6,7,8-tetrahydropteridin-2-yl]amino}-3-methoxybenzoyl)amino]ethyl}piperazine-2-carboxylate] | < 100 nM | < 100 nM |  |  |

Next, values leading:

| IC50 (HCT 116 cell line) | IC50 (PLK1; [1]) | IC50 (PLK1; ester (for Compound 1: the compound itself, one cell spans ester/acid), read-out: Inhibition of PLK (IC50, nM) ester) | IC50 (U937 cell) | SMILES |
| --- | --- | --- | --- | --- |
| 100 to 500 nM | < 100 nM |  |  | CC[C@@H]1C(=O)N(C)c2cnc(Nc3ccc(OCC[C@H](N)C(=O)OC4CCCC4)cc3)nc2N1C1CCCC1 [Example 3, Cyclopentyl O-(4-{[(7R)-8-cyclopentyl-7-ethyl-5-methyl-6-oxo-5,6,7,8-tetrahydropteridin-2-yl]amino}phenyl)-L-homoserinate] |
| < 100 nM | < 100 nM |  |  | CC[C@@H]1C(=O)N(C)c2cnc(Nc3ccc(C(=O)NC4CCN(CCC[C@H](N)C(=O)OC(C)(C)C)CC4)cc3OC)nc2N1C1CCCC1 [Example 23, tert-butyl 5-{4-[(4-{[(7R)-8-cyclopentyl-7-ethyl-5-methyl-6-oxo-5,6,7,8-tetrahydropteridin-2-yl]amino}-3-methoxybenzoyl)amino]piperidin-1-yl}-L-norvalinate] |
